# Experimental data reported in ChEMBL document CHEMBL5537122, “Design, synthesis, and biological evaluation of 4-(2-fluorophenoxy)-7-methoxyquinazoline derivatives as dual EGFR/c-Met inhibitors for the treatment of NSCLC” (Eur J Med Chem, 2024).
# Calls of active or inactive are those of the source. No cut-off for these calls is given here.
# Columns and labels:
# [1] = system: A549; assay: Induction of apoptosis in human A549 cells overexpressing c-MET assessed as increase in green fluorescence intensity incubated for 24 hrs by JC-1 staining based fluorescence inverted microscopic analysis; type: functional, cell-based; details: dose 1-2.5 µM
# [2] = Nephrotoxicity in KM mouse assessed as effect on urea level at 100 mg/kg, IG qd administered for 7 days by automatic biochemical analyzer; type: toxicity, organism-based; details: in vivo, po, 168 h, time 7 day
# [3] = Acute toxicity in KM mouse assessed as cell damage or necrosis in lung at 100 mg/kg, IG qa administered for 7 days and measured on day 8 by hematoxylin and eosin staining based assay; type: organism-based; details: in vivo, po, 192 h, time 8 day
# [4] = system: NCI-H1975; assay: Inhibition of colony formation in human NCI-H1975 cells at 2 uM preincubated for 48 hrs followed by media replacement for every 2 days for 14 days by crystal violet staining based microscopic analysis relative to control; type: functional
# [5] = system: A549; assay: Induction of apoptosis in human A549 cells overexpressing c-MET assessed as reduction in red fluorescence intensity incubated for 24 hrs by JC-1 staining based fluorescence inverted microscopic analysis; type: functional, cell-based; details: dose 1-2.5 µM
# [6] = target: Vascular endothelial growth factor receptor 3 (Homo sapiens) (UniProt P35916); assay: Inhibition of FLT4 (unknown origin) at 10 uM
# [7] = Cardiotoxicity in KM mouse assessed as effect on creatine kinase level at 100 mg/kg, IG qd administered for 7 days by automatic biochemical analyzer; type: toxicity, organism-based; details: in vivo, po, 168 h, time 7 day
# [8] = Hepatotoxicity in KM mouse assessed as effect on aspartate aminotransferase level at 100 mg/kg, IG qd administered for 7 days by automatic biochemical analyzer; type: toxicity, organism-based; details: in vivo, po, 168 h, time 7 day
# [9] = system: A549; assay: Induction in apoptosis in human A549 cells overexpressing c-MET assessed as late apoptotic cells at 1 uM incubated for 24 hrs by Annexin V-FITC/Propidium Iodide staining based flow cytometry analysis (reference value: 7.59 %); type: functional
# [10] = system: PC-9; assay: Antiproliferative activity against human PC-9 cells overexpressing c-Met and EGFR assessed as reduction in cell viability incubated for 72 hrs by MTT assay; type: functional, cell-based; details: PC-9, 72 h
# [11] = system: A549; assay: Inhibition of colony formation in human A549 cells overexpressing c-MET at 1 uM preincubated for 48 hrs followed by media replacement for every 2 days for 14 days by crystal violet staining based microscopic analysis relative to control; type: functional
# [12] = target: Fibroblast growth factor receptor 3 (Homo sapiens) (UniProt P22607); assay: Inhibition of FGFR3 (unknown origin) at 10 uM
# [13] = target: Tyrosine-protein kinase receptor UFO (Homo sapiens) (UniProt P30530); assay: Inhibition of AXL (unknown origin) at 10 uM
# [14] = Toxicity in BALB/c nude mouse xenografted with human A549 cells overexpressing c-MET assessed as change in body weight at 40 to 60 mg/kg, IG and measured for 24 days; type: organism-based; details: in vivo, po, 576 h, dose 40-60 mg/kg, time 24 day
# [15] = Cardiotoxicity in KM mouse assessed as effect on lactate dehydrogenase level at 100 mg/kg, IG qd administered for 7 days by automatic biochemical analyzer; type: toxicity, organism-based; details: in vivo, po, 168 h, time 7 day
# [16] = system: A549; assay: Induction of cell cycle arrest in human A549 cells overexpressing c-MET assessed as accumulation of cells at S phase at 2.5 uM incubated for 24 hrs by RNase A/propidium iodide staining based flow cytometric analysis (reference value: 37.87 %); type: functional
# [17] = Induction in apoptosis in human L02 cells assessed as viable cells at 2.5 uM incubated for 24 hrs by Annexin V-FITC/Propidium Iodide staining based flow cytometry analysis (reference value: 92.75 %); type: toxicity, cell-based; details: read-out: Activity
# [18] = system: A549; assay: Induction in apoptosis in human A549 cells overexpressing c-MET assessed as late apoptotic cells at 2.5 uM incubated for 24 hrs by Annexin V-FITC/Propidium Iodide staining based flow cytometry analysis (reference value: 7.59 %); type: functional
# [19] = target: Epidermal growth factor receptor (Homo sapiens, UniProt P00533); assay: Inhibition of wild type EGFR (unknown origin) at 10 uM relative to control
# [20] = system: PC-9; assay: Antimigratory activity against EGF-induced cell migration in serum starved human PC-9 cells assessed as increase in width of artificial gap incubated for 24 hrs by wound healing assay; type: functional, cell-based; details: dose 1-2.5 µM
# [21] = system: A549; assay: Antitumor activity against human A549 cells overexpressing c-MET xenografted in BALB/c nude mouse assessed as reduction in tumor volume at 60 mg/kg, IG qod measured for 24 days; type: functional, organism-based; details: time 24.0 day
# [22] = system: A549; assay: Induction of cell cycle arrest in human A549 cells overexpressing c-MET assessed as accumulation of cells at S phase at 1 uM incubated for 24 hrs by RNase A/propidium iodide staining based flow cytometric analysis (reference value: 37.87 %); type: functional
# [23] = system: NCI-H1975; assay: Antimigratory activity against EGF-induced cell migration in serum starved human NCI-H1975 cells assessed as increase in width of artificial gap incubated for 24 hrs by wound healing assay; type: functional, cell-based; details: dose 1-2.5 µM
# [24] = Acute toxicity in KM mouse assessed as effect on total protein level at 100 mg/kg, IG qd administered for 7 days by automatic biochemical analyzer; type: organism-based; details: in vivo, po, 168 h, time 7 day
# [25] = Acute toxicity in KM mouse assessed as effect on glucose level at 100 mg/kg, IG qd administered for 7 days by automatic biochemical analyzer; type: organism-based; details: in vivo, po, 168 h, time 7 day
# [26] = system: A549; assay: Induction of cell cycle arrest in human A549 cells overexpressing c-MET assessed as accumulation of cells at G2/M phase at 1 uM incubated for 24 hrs by RNase A/propidium iodide staining based flow cytometric analysis (reference value: 12.41 %); type: functional
# [27] = system: NCI-H1975; assay: Induction in apoptosis in human NCI-H1975 cells assessed as viable cells at 1 uM incubated for 24 hrs by Annexin V-FITC/Propidium Iodide staining based flow cytometry analysis (reference value: 91.58 %); type: functional; details: read-out: Activity
# [28] = system: A549; assay: Induction of cell cycle arrest in human A549 cells overexpressing c-MET assessed as accumulation of cells at G2/M phase at 2.5 uM incubated for 24 hrs by RNase A/propidium iodide staining based flow cytometric analysis (reference value: 12.41 %); type: functional
# [29] = system: A549; assay: Antitumor activity against human A549 cells overexpressing c-MET xenografted in BALB/c nude mouse assessed as tumor growth inhibition at 40 mg/kg, IG qod measured for 24 days relative to control; type: functional; details: A549, po, 576 h, time 24 day, read-out: TGI
# [30] = target: Vascular endothelial growth factor receptor 1 (Homo sapiens) (UniProt P17948); assay: Inhibition of FLT1 (unknown origin) at 10 uM
# [31] = Hepatotoxicity in KM mouse assessed as alkaline phosphatase level at 100 mg/kg, IG qd administered for 7 days by automatic biochemical analyzer; type: toxicity, organism-based; details: in vivo, po, 168 h, time 7 day
# [32] = system: A549; assay: Downregulation of phosphorylated Akt expression level human A549 cells overexpressing c-MET incubated for 24 hrs by Western blotting analysis; type: functional, cell-based; details: dose 0.2-10 µM
# [33] = organism: Homo sapiens; assay: Inhibition of EGFR T790/C797S mutant (unknown origin) at 10 uM
# [34] = system: Epidermal growth factor receptor (Homo sapiens), P00533 [L858R]; assay: Inhibition of EGFR L858R mutant (unknown origin) at 10 uM relative to control
# [35] = target: Macrophage-stimulating protein receptor (Homo sapiens) (UniProt Q04912); assay: Inhibition of RON (unknown origin) at 10 uM
# Fibroblast growth factor receptor 3 (Homo sapiens), sequence (P22607 23-806 limits assumed): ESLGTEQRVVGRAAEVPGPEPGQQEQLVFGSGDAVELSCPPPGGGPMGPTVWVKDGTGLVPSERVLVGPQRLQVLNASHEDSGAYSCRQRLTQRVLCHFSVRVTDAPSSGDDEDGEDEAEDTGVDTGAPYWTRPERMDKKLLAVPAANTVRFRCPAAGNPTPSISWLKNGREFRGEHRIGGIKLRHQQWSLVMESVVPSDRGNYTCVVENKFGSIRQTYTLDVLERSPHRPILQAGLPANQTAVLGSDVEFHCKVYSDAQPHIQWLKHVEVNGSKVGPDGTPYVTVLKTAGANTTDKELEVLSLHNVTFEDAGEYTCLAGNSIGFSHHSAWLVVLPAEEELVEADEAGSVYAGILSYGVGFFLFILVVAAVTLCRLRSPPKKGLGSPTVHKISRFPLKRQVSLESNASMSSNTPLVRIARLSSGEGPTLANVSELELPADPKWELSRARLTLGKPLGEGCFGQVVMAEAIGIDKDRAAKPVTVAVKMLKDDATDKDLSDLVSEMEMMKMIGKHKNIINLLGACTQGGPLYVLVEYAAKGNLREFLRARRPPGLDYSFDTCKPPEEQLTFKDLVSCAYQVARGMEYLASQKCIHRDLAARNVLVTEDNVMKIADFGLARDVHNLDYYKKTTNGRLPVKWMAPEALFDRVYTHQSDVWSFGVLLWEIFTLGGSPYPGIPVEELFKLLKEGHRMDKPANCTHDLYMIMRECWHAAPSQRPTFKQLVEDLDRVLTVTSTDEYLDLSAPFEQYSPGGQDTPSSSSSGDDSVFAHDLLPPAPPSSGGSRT
# Epidermal growth factor receptor (Homo sapiens), P00533 [L858R], sequence (P00533 whole entry L858R): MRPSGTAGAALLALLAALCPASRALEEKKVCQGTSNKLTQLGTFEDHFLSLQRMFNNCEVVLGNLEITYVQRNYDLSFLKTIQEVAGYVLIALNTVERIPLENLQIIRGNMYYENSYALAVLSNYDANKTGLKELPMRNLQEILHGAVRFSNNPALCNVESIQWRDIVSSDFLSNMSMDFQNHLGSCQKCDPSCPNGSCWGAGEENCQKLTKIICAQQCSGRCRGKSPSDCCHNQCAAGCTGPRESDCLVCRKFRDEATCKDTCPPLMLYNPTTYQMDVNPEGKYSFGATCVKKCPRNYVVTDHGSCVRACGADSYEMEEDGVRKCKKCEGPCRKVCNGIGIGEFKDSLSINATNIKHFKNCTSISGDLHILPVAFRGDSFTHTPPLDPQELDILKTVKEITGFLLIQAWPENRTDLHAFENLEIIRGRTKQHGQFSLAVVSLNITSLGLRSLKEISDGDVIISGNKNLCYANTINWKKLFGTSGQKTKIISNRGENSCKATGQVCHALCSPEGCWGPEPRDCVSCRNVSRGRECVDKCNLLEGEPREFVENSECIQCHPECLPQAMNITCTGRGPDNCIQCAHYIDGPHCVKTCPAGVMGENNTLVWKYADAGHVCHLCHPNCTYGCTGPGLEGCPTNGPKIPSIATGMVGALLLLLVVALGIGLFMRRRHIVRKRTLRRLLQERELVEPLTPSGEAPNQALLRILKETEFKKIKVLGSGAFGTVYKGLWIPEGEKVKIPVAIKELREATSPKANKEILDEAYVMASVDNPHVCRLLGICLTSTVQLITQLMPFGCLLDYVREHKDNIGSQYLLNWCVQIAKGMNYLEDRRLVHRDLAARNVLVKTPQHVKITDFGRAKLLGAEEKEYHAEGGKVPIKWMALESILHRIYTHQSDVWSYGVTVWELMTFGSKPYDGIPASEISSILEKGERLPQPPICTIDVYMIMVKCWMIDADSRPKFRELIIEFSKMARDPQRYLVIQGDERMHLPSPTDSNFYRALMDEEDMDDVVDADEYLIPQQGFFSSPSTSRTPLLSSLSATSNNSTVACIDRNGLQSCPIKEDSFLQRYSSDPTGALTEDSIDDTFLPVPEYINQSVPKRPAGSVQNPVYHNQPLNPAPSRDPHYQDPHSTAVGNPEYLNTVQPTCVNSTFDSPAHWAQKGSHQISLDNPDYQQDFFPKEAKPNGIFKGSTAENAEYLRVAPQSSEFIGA
# Vascular endothelial growth factor receptor 1 (Homo sapiens), sequence (P17948 whole entry): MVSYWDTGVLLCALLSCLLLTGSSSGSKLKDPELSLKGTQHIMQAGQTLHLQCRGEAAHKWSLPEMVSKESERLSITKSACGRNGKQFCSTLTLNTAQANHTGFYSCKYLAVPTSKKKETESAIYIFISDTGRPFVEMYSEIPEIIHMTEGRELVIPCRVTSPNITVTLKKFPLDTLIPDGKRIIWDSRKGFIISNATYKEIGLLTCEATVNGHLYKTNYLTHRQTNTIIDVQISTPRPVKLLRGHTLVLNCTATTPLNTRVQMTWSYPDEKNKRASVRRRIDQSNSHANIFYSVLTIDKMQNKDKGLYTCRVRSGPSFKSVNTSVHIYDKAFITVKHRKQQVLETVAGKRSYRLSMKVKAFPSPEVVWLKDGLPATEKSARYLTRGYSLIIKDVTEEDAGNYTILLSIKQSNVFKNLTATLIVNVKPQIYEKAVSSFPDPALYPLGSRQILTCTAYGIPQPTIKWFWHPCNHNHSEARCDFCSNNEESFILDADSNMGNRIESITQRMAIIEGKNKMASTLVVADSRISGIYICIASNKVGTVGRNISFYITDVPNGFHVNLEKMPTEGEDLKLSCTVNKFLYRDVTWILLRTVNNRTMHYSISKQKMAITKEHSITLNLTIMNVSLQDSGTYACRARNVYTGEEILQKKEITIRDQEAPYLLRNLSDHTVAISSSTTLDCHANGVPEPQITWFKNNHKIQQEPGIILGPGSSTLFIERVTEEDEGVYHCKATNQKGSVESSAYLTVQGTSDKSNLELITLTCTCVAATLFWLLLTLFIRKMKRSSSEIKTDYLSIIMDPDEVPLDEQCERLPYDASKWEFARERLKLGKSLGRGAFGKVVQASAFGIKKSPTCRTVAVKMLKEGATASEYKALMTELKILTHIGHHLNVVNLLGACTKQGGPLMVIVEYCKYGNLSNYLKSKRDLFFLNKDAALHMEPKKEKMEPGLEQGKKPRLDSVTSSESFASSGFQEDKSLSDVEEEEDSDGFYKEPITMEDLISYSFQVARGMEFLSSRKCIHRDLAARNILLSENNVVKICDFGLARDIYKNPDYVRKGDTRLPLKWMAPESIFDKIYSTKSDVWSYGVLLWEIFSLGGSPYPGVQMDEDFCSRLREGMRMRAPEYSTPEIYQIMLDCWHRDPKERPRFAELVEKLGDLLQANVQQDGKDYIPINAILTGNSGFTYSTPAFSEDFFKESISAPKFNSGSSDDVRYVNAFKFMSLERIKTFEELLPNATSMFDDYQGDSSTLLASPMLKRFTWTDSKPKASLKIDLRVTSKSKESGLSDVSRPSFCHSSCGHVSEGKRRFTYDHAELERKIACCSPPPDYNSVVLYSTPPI
# Tyrosine-protein kinase receptor UFO (Homo sapiens), sequence (P30530 whole entry): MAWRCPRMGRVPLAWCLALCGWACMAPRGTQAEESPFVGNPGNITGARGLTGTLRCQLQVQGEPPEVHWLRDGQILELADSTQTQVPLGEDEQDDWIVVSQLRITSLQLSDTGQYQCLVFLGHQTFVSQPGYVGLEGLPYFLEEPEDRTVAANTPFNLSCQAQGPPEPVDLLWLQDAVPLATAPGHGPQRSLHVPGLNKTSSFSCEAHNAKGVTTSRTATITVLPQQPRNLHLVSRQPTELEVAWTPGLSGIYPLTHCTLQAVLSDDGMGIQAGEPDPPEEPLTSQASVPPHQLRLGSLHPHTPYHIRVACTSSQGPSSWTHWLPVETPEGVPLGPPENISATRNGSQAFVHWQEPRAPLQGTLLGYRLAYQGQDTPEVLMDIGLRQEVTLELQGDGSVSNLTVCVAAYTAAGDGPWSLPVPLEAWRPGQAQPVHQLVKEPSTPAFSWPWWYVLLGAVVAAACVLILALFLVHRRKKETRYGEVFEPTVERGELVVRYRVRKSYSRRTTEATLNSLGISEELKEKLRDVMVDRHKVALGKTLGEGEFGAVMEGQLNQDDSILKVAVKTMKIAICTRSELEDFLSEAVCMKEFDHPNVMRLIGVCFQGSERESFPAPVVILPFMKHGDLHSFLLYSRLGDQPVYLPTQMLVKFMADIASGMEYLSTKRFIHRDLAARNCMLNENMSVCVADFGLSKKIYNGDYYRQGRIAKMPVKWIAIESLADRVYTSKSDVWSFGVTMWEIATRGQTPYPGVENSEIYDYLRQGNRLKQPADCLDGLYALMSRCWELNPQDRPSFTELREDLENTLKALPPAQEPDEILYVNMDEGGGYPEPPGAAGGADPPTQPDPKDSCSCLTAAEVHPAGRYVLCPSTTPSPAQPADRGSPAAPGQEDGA
smiles,measurement,setting,value
C=CC(=O)Nc1cc2c(Oc3ccc(NC(=O)n4c(=O)c(-c5ccccc5)c(C)n4C)cc3F)cccc2cc1OC,Activity,[1],Dose-Dependent Effect
same,Activity,[2],Non-Toxic
same,Activity,[3],Non-Toxic
same,inhibition at 2 µM,[4],~100%
same,Activity,[5],Dose-Dependent Effect
same,inhibition,[6],Active
same,Activity,[7],Non-Toxic
same,Activity,[8],Non-Toxic
same,Activity,[9],12.12%
same,IC50,[10],1050 nM
same,inhibition at 1 µM,[11],~50%
same,inhibition,[12],inactive
same,inhibition,[13],inactive
same,Activity,[14],Non-Toxic
same,Activity,[15],Non-Toxic
same,Activity,[16],31.41%
same,"viability at 24 h, 2.5 µM",[17],95%
same,Activity,[18],22.82%
same,inhibition,[19],> 90%
same,Activity,[20],Dose-Dependent Effect
same,Activity,[21],Active
same,Activity,[22],35.49%
same,Activity,[23],Dose-Dependent Effect
same,Activity,[24],Non-Toxic
same,Activity,[25],Non-Toxic
same,Activity,[26],11.29%
same,viability at 1 µM,[27],88.2%
same,Activity,[28],10.98%
same,inhibition in vivo at 40 mg/kg,[29],25%
same,inhibition,[30],Active
same,Activity,[31],> 60 U/L
same,Activity,[32],Dose-Dependent Effect
same,inhibition,[33],inactive
same,inhibition,[34],> 90%
same,inhibition,[35],Active
